From ChEMBL document CHEMBL1146166, “Discovery and design of benzimidazolone based inhibitors of p38 MAP kinase” (Bioorg Med Chem Lett, 2006)
Converted amounts (≈) assume the structure as drawn.

tested on: THP-1; experiment: Inhibition of LPS-stimulated TNFalpha production in THP1 cells; assay type: functional, cell-based; settings: Homo sapiens

| Structure (SMILES) | EC50 [nM] |
| --- | --- |
| O=c1[nH]c2cc(Nc3ccccc3)ccc2n1C1CCNC1 (configuration not stated) | 1100 |
| O=c1[nH]c2cc(Nc3ccc(F)c(F)c3)ccc2n1CC1CCCCC1 | 420 |
| O=C(c1ccccc1)c1ccc2[nH]c(=O)[nH]c2c1 | > 5000 |
| O=C(c1ccccc1)c1ccc2c(c1)[nH]c(=O)n2CC1CCCCC1 | 880 |
| N=C(N)c1ccc(Cn2c(=O)[nH]c3cc(C(=O)c4ccccc4)ccc32)cc1 | > 10000 |
| Cn1c(=O)[nH]c2cc(C(=O)c3ccccc3)ccc21 | > 5000 |
| O=c1[nH]c2cc(Nc3cccc(C(F)(F)F)c3)ccc2n1CC1CCCCC1 | 2300 |
| O=C(c1ccccc1)c1ccc2c(c1)[nH]c(=O)n2Cc1ccccc1 | 1000 |
| O=c1[nH]c2cc(Nc3cc(Cl)cc(Cl)c3)ccc2n1CC1CCCCC1 | > 10000 |
| CC(C)(CN)n1c(=O)[nH]c2cc(Nc3ccccc3)ccc21 | 3400 |

These reach a lower EC50. Values come first.

| EC50 [nM] | Structure (SMILES) |
| --- | --- |
| 320 | O=c1[nH]c2cc(Nc3ccccc3)ccc2n1Cc1ccccc1 |
| 270 | O=c1[nH]c2cc(Nc3ccccc3)ccc2n1CC1CCCCC1 |
| 250 | O=c1[nH]c2cc(Oc3ccccc3)ccc2n1CC1CCCCC1 |
| 220 | O=c1[nH]c2cc(Nc3ccccc3)ccc2n1Cc1c(F)cccc1F |
| 190 | O=c1[nH]c2cc(Nc3cccc(F)c3)ccc2n1CC1CCCCC1 |
| 180 | Cc1ccccc1Nc1cc2[nH]c(=O)n(CC3CCCCC3)c2cc1N1CCN(C)CC1 |
| 150 | O=c1[nH]c2cc(Nc3ccccc3)c(N3CCNCC3)cc2n1CC1CCCCC1 |
| 150 | CN1CCN(c2cc3c(cc2Nc2ccccc2)[nH]c(=O)n3CC2CCCCC2)CC1 |
| 150 | O=c1[nH]c2cc(Nc3ccccc3)ccc2n1C1CCCC1 |
| 74 | CC(C)(C)n1c(=O)[nH]c2cc(Nc3ccccc3)ccc21 |
| 74 | O=c1[nH]c2cc(Nc3ccc(F)cc3)ccc2n1CC1CCCCC1 |
| 66 | O=c1[nH]c2cc(Nc3ccccc3F)ccc2n1CC1CCCCC1 |
| 64 | Cc1ccccc1Nc1ccc2c(c1)[nH]c(=O)n2CC1CCCCC1 |
| 46 | O=c1[nH]c2cc(Nc3ccc(F)cc3F)ccc2n1CC1CCCCC1 |

target: Mitogen-activated protein kinase 9 (Homo sapiens, UniProt P45984); experiment: Inhibition of Jnk2alpha2; settings: not given
Sequence (P45984 whole entry): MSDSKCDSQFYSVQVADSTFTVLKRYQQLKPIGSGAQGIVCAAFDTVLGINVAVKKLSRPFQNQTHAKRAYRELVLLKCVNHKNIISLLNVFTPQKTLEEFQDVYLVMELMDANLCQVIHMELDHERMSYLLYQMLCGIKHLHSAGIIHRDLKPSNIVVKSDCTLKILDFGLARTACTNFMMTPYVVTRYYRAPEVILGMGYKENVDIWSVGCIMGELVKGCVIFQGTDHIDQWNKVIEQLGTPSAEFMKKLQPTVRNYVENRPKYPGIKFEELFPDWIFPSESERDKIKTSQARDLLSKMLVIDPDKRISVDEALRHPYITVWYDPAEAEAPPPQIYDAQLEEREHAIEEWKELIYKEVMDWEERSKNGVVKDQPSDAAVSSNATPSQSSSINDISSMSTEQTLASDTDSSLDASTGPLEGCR

| Structure (SMILES) | IC50 [nM] |
| --- | --- |
| O=c1[nH]c2cc(Nc3ccc(F)cc3F)ccc2n1CC1CCCCC1 | 5500 |

tested on: not listed separately; experiment: Aqueous solubility at pH 7.4; assay type: physicochemical; settings: not given

| Structure (SMILES) | solubility [µM] |
| --- | --- |
| O=c1[nH]c2cc(Nc3ccccc3)ccc2n1CC1CCCCC1 | 0.2 (≈ 0.0643 µg/mL) |
| CN1CCN(c2cc3c(cc2Nc2ccccc2)[nH]c(=O)n3CC2CCCCC2)CC1 | 5.7 (≈ 2.39 µg/mL) |
